Legend:
Format in all cases: in vivo, human
SLE patients = assay: Tolerance and safety, double-blind placebo-controlled pilot study of NAC in SLE
Protocol: 36 patients with stable disease were enrolled in a double-blind placebo-controlled treatment trial with N-acetylcysteine (NAC; FDA approval, IND No: 101,320; clinicaltrials.gov identifier: NCT00775476). SLE patients were randomized to receive either placebo (placebo group—dextrose) or NAC (test group) in one of three treatment arms of increasing doses for three months: 600 mg twice daily (Dose 1), 1,200 mg twice daily (Dose 2), or 2,400 mg twice daily (Dose 3). 12 patients were enrolled per treatment arm, 9 received NAC while 3 received placebo.
At each visit, patients were specifically asked about common side effects (nausea, bloating, bad taste) seen in prior trials These side effects were reviewed by the Data Safety and Monitoring Board (DSMB) bi-annually. Tolerance and safety were primary clinical outcomes.
All 24 patients in Dosing Group 1 (1.2 g/day NAC) and 2 (2.4 g/day NAC) completed the treatment and none of the […] in Dosing Group 1 (1.2 g/day NAC) or 2 (2.4 g/day NAC) reported unpleasant smell or taste. Three of 12 patients in Dosing Group 3 (4.8 g/day) dropped out (Table 6) due to 1) heartburn after 26 days, which resolved after discontinuing the capsules; 2) recurrent nausea and one-time vomiting after 46 days, with resolution after discontinuing the capsules; 3) headaches, which were eliminated by halving the dose to 2.4 g/day. Since all three patients reporting intolerance received NAC, in accordance with the DSMP, no higher dose was initiated. Following the last Dosing Group 3 visit, the study was un-blinded.

GSH in whole blood = assay: HPLC assay of GSH in whole blood of SLE patients; conditions: after 1 and 2 months of NAC treatment
Protocol: (§1) Reduced glutathione (GSH) was measured by reverse phase ion-exchange HPLC using UV detection at 365 nm, as described in Gergely, P. J. et al., “Mitochondrial hyperpolarization and ATP depletion in patients with systemic lupus erythematosus,” Arth. Rheum., 46: 175-190 (2002); and Hanczko, R. et al., “Prevention of hepatocarcinogenesis and acetaminophen-induced liver failure in transaldolase-deficient mice by N-acetylcysteine,” J. Clin. Invest., 119: 1546-1557 (2009). The disclosures of each of these references are incorporated by reference herein in their entirety.
(§2) GSH was measured in whole blood and peripheral blood lymphocytes (PBL) before (visit 1; 0 h) and after the first NAC/placebo dose (visit 1; 3 h and 6 h) and upon each monthly follow-up visit (visits 2-4: between 9-11 am after having taken the last NAC/placebo capsule 8 pm the night before), and after 1 month wash-out (visit 5). HPLC analysis required ˜0.25 ml of whole blood and 5×10^6 PBL which were obtained from a total of 10 ml of blood collected at each time point.

[1] = tested on: GSH in peripheral blood lymphocytes (PBL); assay: HPLC assay of GSH in peripheral blood lymphocytes (PBL) of SLE patients
Protocol: as §1, §2

mTOR = mTOR activity by phosphorylation of S6 ribosomal protein (pS6-RP) in T-cell subsets; conditions: for pS6-RPhi T cells in the DN T-cell compartment: baseline 22.5±3.7%
Protocol: mTOR activity was assessed by phosphorylation of its downstream substrate S6 ribosomal protein (pS6-RP) using a monoclonal antibody to pS6-RP (Cell Signaling; Beverly, Mass.; Cat. No. 4851) in cells permeabilized with Cytofix/CytopermPlus (BD Biosciences). […] FIG. 4A: Assessment of pS6-RP in CD3^+, CD4^+, CD8^+, and DN T cells from control (blue histograms) and lupus donors (red histograms). Blue/red values show the percentage of cell populations with increased mTOR activity in control and lupus T-cell subsets, respectively. FIG. 4B: Cumulative analysis of mTOR activity in T-cell subsets of all lupus patients relative to all healthy controls. Values represent mean±SEM of cell populations with increased mTOR activity. p values reflect comparison of lupus and healthy donors with unpaired two-tailed t-test before treatment. FIG. 4C: Effect of NAC on mTOR activity measured by the prevalence of pS6-RP^hi T cells in lupus patients exposed to all doses considered together. p values reflect comparison to pre-treatment visit 1 using two-tailed paired t-test. FIG. 4D: Effect of NAC on CD3/CD28-induced mTOR activity in T cell subsets of lupus patients exposed to all doses considered together.

Compound: CC(=O)N[C@@H](CS)C(=O)O [NAC, N-acetyl-L-cysteine]
- patients reporting unpleasant smell or taste (SLE patients; Dosing Group 1 (1.2 g/day NAC) or 2 (2.4 g/day NAC)): none
- patients dropped out (heartburn; recurrent nausea and vomiting; headaches) (SLE patients; Dosing Group 3 (4.8 g/day), all three received NAC): Three of 12
- safety and tolerance (SLE patients; all SLE patients, up to 2.4 g/day): safe and tolerated
- patients with reversible nausea (SLE patients; patients receiving 4.8 g/day): 33%
- GSH in whole blood (GSH in whole blood): increased
- GSH in PBL ([1]; after 3-month treatment with NAC doses 2 and 3 considered together (visit 4; p=0.027)): increased
- GSH in PBL ([1]; after one month washout, NAC dose 3 or doses 2 and 3 combined): dropped below baseline
- GSH in PBL ([1]; single NAC dose of 1.2 g, after 6 h (p=0.022)): increased
- GSH in PBL ([1]; single NAC dose of 2.4 g, after 3 h (p=0.032) and 6 h (p=0.003)): increased
- pS6-RPhi T cells in the DN T-cell compartment (mTOR; after 2 months, p=0.0104): 16.9±2.5%
- pS6-RPhi T cells in the DN T-cell compartment (mTOR; after 3 months, p=0.0095): 16.4±2.4%
- pS6-RPhi T cells in the DN T-cell compartment (mTOR; after 4 months, p=0.0009): 12.1±2.4%
- CD3/CD28-induced mTOR activation (mTOR; all T cells after 2 months and 3 months, rebounded after washout): diminished

Source: US20140275257A1, “N-ACETYL CYSTEINE COMPOSITIONS IN THE TREATMENT OF SYSTEMIC LUPUS ERYTHEMATOSUS” (Foundation for the State University of New York, priority 2013, published 2014)
